Data published in ChEMBL document CHEMBL3301361, “Experimental in vitro DMPK and physicochemical data on a set of publicly disclosed compounds”.
Values after ≈ are worked out from the molar mass of the structure shown.

What was measured:
in vitro [1] = details: SD, HW or BN, rat, plasma
in vitro [2] = details: human, plasma
in vitro [3] = details: Beagle, dog, plasma
physchem [4] = details: pH 7.4 buffer
physchem [5] = details: octan-1-ol/water, pH 7.4, LogD7.4
in vitro [6] = details: human

| Structure (SMILES) | fraction unbound at 5 h (in vitro [1]) | fraction unbound at 5 h (in vitro [2]; PPB) | fraction unbound at 5 h (in vitro [3]) | solubility thermodynamic (physchem [4]) [µM] | logD (physchem [5]) | microsomal CLint (in vitro [6]; liver microsomes) [µL/min/mg] | fraction unbound at 5 h (in vitro [2]) | microsomal CLint (in vitro [6]; microsomes) [µL/min/mg] |
| --- | --- | --- | --- | --- | --- | --- | --- | --- |
| CCNC(=O)Nc1nc2cc(-c3cccnc3)cc(-c3ncccc3F)c2[nH]1 | 0.028 | 0.0136 | 0.04 | – | – | – | – | – |
| O=C(NC12CC3CC(CC(C3)C1)C2)OCCNC1CCCCC1 | 0.129 | 0.11 | 0.16 | – | – | – | – | – |
| C[C@H](CO)Nc1nc(SCc2cccc(F)c2F)nc2[nH]c(=O)cnc12 | – | 0.0114 | 0.028 | 3.5 (≈ 1.33 µg/mL) | 3.1 | – | – | – |
| CCCSc1nc(N)c2ncn([C@@H]3O[C@H](CO)[C@@H](O)[C@H]3O)c2n1 | – | 0.483 | 0.591 | – | – | – | – | – |
| C[C@@H]1C[C@H]2[C@@H]3CCC4=CC(=O)C=C[C@]4(C)[C@@]3(Cl)[C@@H](O)C[C@]2(C)[C@@]1(OC(=O)c1ccco1)C(=O)CCl [MOMETASONE FUROATE] | 0.001 | 0.0023 | 0.003 | – | – | – | – | – |
| CCNC(=O)[C@H]1C[C@@](F)(c2ccc(CN3CCCC3)c(F)c2)C1 [PF-03654746] | 0.772 | – | 0.807 | – | – | – | – | – |
| CCCSc1nc(N[C@@H]2C[C@H]2c2ccccc2)c2nnn([C@@H]3C[C@H](O)[C@@H](O)[C@H]3O)c2n1 | – | – | 0.0066 | 1.1 (≈ 0.487 µg/mL) | 3.97 | < 3 | – | – |
| CNc1cc2[nH]c(=O)n(-c3ccc(NC(=O)NS(=O)(=O)c4ccc(Cl)s4)cc3)c(=O)c2cc1F [ELINOGREL] | – | 0.0042 | 0.0069 | – | – | – | – | – |
| C[C@H](CO)Nc1nc(SCc2cccc(Cl)c2F)nc2[nH]c(=O)sc12 | – | – | 0.0005 | 1 (≈ 0.401 µg/mL) | 3.53 | – | – | – |
| CCOc1cc2ncc(C(N)=O)c(Nc3cc(C)ccc3F)c2cc1N1CCN(C)CC1 | 0.107 | – | 0.365 | – | – | – | – | – |
| CC(C)(C)NC(=O)NCCN1CCC(CNC(=O)c2cc(Cl)cc(Cl)c2)C1 (stereo not given) | 0.139 | 0.0968 | 0.0909 | – | – | – | – | – |
| Cc1cc(F)ccc1Oc1cccc2c(=O)cc(N3CCOCC3)[nH]c12 | 0.0854 | – | 0.0088 | – | – | – | – | – |
| N#Cc1ccc2ccc(=O)n(CCN3CC[C@@H](NCc4cc5c(cn4)OCCO5)[C@@H](O)C3)c2c1 | 0.471 | – | 0.602 | – | 0.45 | – | – | – |
| O=C(NCC12CC3CC(CC(C3)C1)C2)c1cc(CN2C[C@@H]3C[C@H]2CN3)ccc1Cl | – | 0.0968 | 0.114 | – | 1.45 | 13 | – | – |
| CC(C)(C)NC(=O)NCCN1CCC(O)(CNC(=O)c2cc(Cl)cc(Cl)c2)CC1 | 0.232 | 0.232 | 0.36 | – | – | – | – | – |
| CC(C)n1c(/C=C/C(O)CC(O)CC(=O)O)c(-c2ccc(F)cc2)c2ccccc21 (stereo not given) [FLUVASTATIN] | – | – | 0.0028 | – | – | – | 0.0048 | – |
| Cc1ccc2c(c1)c(-c1cc(C)nc3ccccc13)c(C)n2CC(=O)O | – | 0.004 | 0.0133 | – | 2.88 | < 3 | – | – |
| CCOc1cc2nnc(C(N)=O)c(Nc3ccc(C)cc3F)c2cc1N1CCN(C)CC1 | 0.0633 | 0.016 | 0.062 | – | – | – | – | – |
| O=C(Cn1c(Cl)cnc(NCC(F)(F)c2ccccn2)c1=O)NCc1ncccc1F [DPOC-4088] | 0.208 | 0.28 | 0.392 | – | – | – | – | – |
| N#Cc1ccc2ccc(=O)n(CCN3CC[C@H](NCc4cc5c(cn4)OCCO5)[C@H](O)C3)c2c1 | 0.734 | – | 0.608 | – | 0.46 | – | – | – |
| CCCc1nc(C(C)(C)O)c(C(=O)O)n1Cc1ccc(-c2ccccc2-c2nnn[nH]2)cc1 [OLMESARTAN] | – | – | 0.0119 | – | – | – | – | – |
| Cc1cc(Nc2nc(N[C@@H](C)c3ccc(F)cn3)c(C#N)nc2C)n[nH]1 | 0.19 | 0.173 | 0.262 | – | – | – | – | – |
| CCCCNc1nc(SCCC)nc2c1nnn2[C@@H]1C[C@H](CO)[C@@H](O)[C@H]1O | – | 0.024 | 0.0467 | – | 3.07 | – | – | 6 |
| CC(C)Cn1c(=O)n(C)c(=O)c2c(SCCCO)n(Cc3cccc4ccccc34)cc21 | – | – | 0.0034 | – | 4.36 | – | – | – |
| Cc1c(Sc2ccc(Cl)cc2)c2c(S(C)(=O)=O)cccc2n1CC(=O)O | – | 0.035 | 0.0256 | – | 0.58 | – | – | < 3 |
| N#Cc1ccccc1C[C@@H](C(=O)O)N1CCC(CN2CCC(Oc3ccc(Cl)c(Cl)c3)CC2)CC1 | 0.224 | – | 0.0661 | 288 (≈ 149 µg/mL) | – | – | – | – |
| COc1ccc(NC(=O)c2ccc(Cn3ccnn3)c3ccccc23)c(C(=O)NCC2CCOCC2)n1 | – | – | 0.028 | – | – | – | – | – |
| CC(C)Cn1c(=O)n(C)c(=O)c2c(C(=O)N3CC[C@@H](O)C3)c(Cc3c[nH]c4ccccc34)sc21 | – | 0.0854 | 0.443 | – | 2.35 | 107 | – | – |
